The values below come from patent US20020151534A1, “Antithrombotic compounds” (priority 2001, published 2002).

As a reminder, the IC50 is the concentration needed to halve the response being measured.

For the assay, the target named is T1, human factor Xa (Homo sapiens, UniProt P00742).
T1 construct: released from the colourless chromogenic substrate by human factor Xa; purchased Roche
T1 sequence (P00742 235-488 limits assumed): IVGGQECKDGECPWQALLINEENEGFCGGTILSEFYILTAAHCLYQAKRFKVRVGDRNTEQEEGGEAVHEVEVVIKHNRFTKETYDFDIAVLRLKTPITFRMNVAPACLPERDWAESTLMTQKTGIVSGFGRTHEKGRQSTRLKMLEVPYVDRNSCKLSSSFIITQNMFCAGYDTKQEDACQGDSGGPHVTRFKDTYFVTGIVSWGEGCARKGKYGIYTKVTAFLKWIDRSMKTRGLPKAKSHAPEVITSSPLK
T1 sequence (P00742 41-179 partner limits assumed): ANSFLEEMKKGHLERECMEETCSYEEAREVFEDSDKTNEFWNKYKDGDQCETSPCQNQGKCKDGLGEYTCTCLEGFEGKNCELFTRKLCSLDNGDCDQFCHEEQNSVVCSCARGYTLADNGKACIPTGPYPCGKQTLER
The assay can be described thus: Inhibition of factor Xa, enzyme-kinetic measurement with chromogenic substrate. The assay is classed as biochemical. The settings on record: substrate Chromozym X 200 μMol/l, pNA release at 405 nm, pH 8.0, 37° C. The procedure: Enzyme-kinetic measurement with chromogenic substrate. The quantity of anp-nitroaniline (pNA) released from the colourless chromogenic substrate by human factor Xa is determined photometrically at 405 nm. It is proportional to the activity of the enzyme used. The inhibition of the enzyme activity by the test substance I (in relation to the solvent control) is determined at various concentrations of test substance and from this the IC50 is calculated, as the concentration which inhibits the factor Xa used by 50%.
Tris(hydroxymethyl)-aminomethane buffer (100 mmol) and sodium chloride (150 mMol), pH 8.0
Factor Xa (Roche), spec. activity: 10 U/0.5 ml, final concentration: 0.175 U/ml for each reaction mixture
Substrate Chromozym X (Roche), final concentration: 200 μMol/l for each reaction mixture
10 μl of a 23.5-times concentrated starting solution of the test substance or solvent (control), 175 μl of tris(hydroxymethyl)-aminomethane buffer and 25 μl of a 1.65 U/ml Factor Xa working solution are incubated for 10 minutes at 37° C. After the addition of 25 μl of Chromozym X working solution ([…]) the sample is measured in a photometer (SpectraMax 250) at 405 nm for 150 seconds at 37° C.
1. Determining the maximum increase (deltaOD/minutes) over 3 measuring points.
2. Determining the % inhibition based on the solvent control.
3. Plotting a dosage/activity curve (% inhibition vs substance concentration).
4. Determining the IC50 by interpolating the X value (substance concentration) of the dosage/activity curve at Y=50% inhibition.
In turn, `Cc1cc(C(=O)NC(CC(=O)O)c2cccc(C(=N)N)c2)ccc1C(=O)N1CCCC1` (centres unmarked) [(5)] returned an IC50 of 0.031 µM.
The result for `Cc1cc(NCCc2cc(C(=N)N)ccc2O)ccc1C(=O)N1CCCC1` [(1)] reads 0.084 µM.
The result for `N=C(N)c1ccc(O)c(CNC(=O)c2ccc(C(=O)N3CCCC3)c(Cl)c2)c1` [(4)] reads 0.01 µM; that for `CCOC(=O)CCC(=O)N(c1ccc(C(=O)NCc2cc(C(=N)N)ccc2O)cc1C)C1CCCC1` [(3)], 0.075 µM.
The result for `Cc1cc(C(=O)NCc2cc(C(=N)N)ccc2O)ccc1C(=O)N1CCCC1` [(2)] reads 0.014 µM.
